Laboratory results published in ChEMBL document CHEMBL1145474, “Selective phosphorylation of antiviral drugs by vaccinia virus thymidine kinase” (Antimicrob Agents Chemother, 2007).

B1: Thymidine kinase (Vaccinia virus (strain Western Reserve) (VACV) (Vaccinia virus (strainWR))), P68563 (protein)
chain: MNGGHIQLIIGPMFSGKSTELIRRVRRYQIAQYKCVTIKYSNDNRYGTGLWTHDKNNFEALEATKLCDVLESITDFSVIGIDEGQFFPDIVEFCERMANEGKIVIVAALDGTFQRKPFNNILNLIPLSEMVVKLTAVCMKCFKEASFSKRLGEETEIEIIGGNDMYQSVCRKCYIDS

How the values were obtained:
Vaccinia virus = experiment: microbe, parasite or virus in culture; assay type: functional, organism-based; details: Orthopoxvirus vaccinia, HFF, 1 h
Cowpox virus [1] = experiment: microbe, parasite or virus in culture; assay type: functional, organism-based; details: Brighton, HFF, 1 h
Cowpox virus [2] = experiment: microbe, parasite or virus in culture; assay type: functional, organism-based; details: HFF, 48 h
Cowpox virus [3] = experiment: microbe, parasite or virus in culture; assay type: functional, organism-based; details: HFF, 48 h; remark: listed apart in the source
Human alphaherpesvirus 1 [4] = experiment: microbe, parasite or virus in culture; assay type: functional, organism-based; details: Human alphaherpesvirus 1, E377, HFF, 72 h
Human alphaherpesvirus 1 [5] = experiment: microbe, parasite or virus in culture; assay type: functional, organism-based; details: Human alphaherpesvirus 1, DM2.1, HFF, 72 h
Human alphaherpesvirus 2 [6] = experiment: microbe, parasite or virus in culture; assay type: functional, organism-based; details: Human alphaherpesvirus 2, MS, HFF, 72 h
Human alphaherpesvirus 2 [7] = experiment: microbe, parasite or virus in culture; assay type: functional, organism-based; details: Human alphaherpesvirus 2, AG3, HFF, 72 h
Human alphaherpesvirus 3 = experiment: microbe, parasite or virus in culture; assay type: functional, organism-based; details: Human alphaherpesvirus 3, Ellen, HFF, 240 h
[8] = substrate: CC1(C)CC(=O)C2=C(C1)OC(N)=C(C#N)C2c1cn([C@H]2C[C@H](O)[C@@H](CO)O2)c(=O)[nH]c1=O; details: Orthopoxvirus vaccinia; WR
[9] = substrate: CCOC(=O)/C(C#N)=C/c1cn([C@H]2C[C@H](O)[C@@H](CO)O2)c(=O)[nH]c1=O; details: Orthopoxvirus vaccinia; WR
[10] = substrate: N#CC(C#N)=Cc1cn([C@H]2C[C@H](O)[C@@H](CO)O2)c(=O)[nH]c1=O; details: Orthopoxvirus vaccinia; WR
[11] = substrate: Nc1nc(=O)n([C@@H]2O[C@H](CO)[C@@H](O)[C@@H]2F)cc1I; details: Orthopoxvirus vaccinia; WR
[12] = substrate: O=c1[nH]c(=O)n([C@H]2C[C@H](O)[C@@H](CO)O2)cc1Br; details: Orthopoxvirus vaccinia; WR
[13] = substrate: O=c1[nH]c(=O)n([C@H]2C[C@H](O)[C@@H](CO)O2)cc1F; details: Orthopoxvirus vaccinia; WR
[14] = substrate: O=c1[nH]cc(C(F)(F)F)c(=O)[nH]1; details: Orthopoxvirus vaccinia; WR

Molecule | EC50 (Vaccinia virus) | EC50 (Cowpox virus [1]) | EC50 (Cowpox virus [2]) | EC50 (Cowpox virus [3]) | EC50 (Human alphaherpesvirus 1 [4]) | EC50 (Human alphaherpesvirus 1 [5]) | EC50 (Human alphaherpesvirus 2 [6]) | EC50 (Human alphaherpesvirus 2 [7]) | EC50 (Human alphaherpesvirus 3) | Km (Homo sapiens) | other results
N#CC1=C(N)OC2=C(C(=O)CCC2)C1c1cn([C@H]2C[C@H](O)[C@@H](CO)O2)c(=O)[nH]c1=O (stereo partly specified) | 4.6 µM | 2 µM | 67 µM | 1.9 µM | 8.6 µM | 13 µM | 12 µM | 12 µM | 16 µM | – | –
O=c1[nH]c(=O)n([C@H]2C[C@H](O)[C@@H](CO)O2)cc1F | – | – | – | – | – | – | – | – | – | 96 µM | –
Cc1cn([C@H]2C[C@H](O)[C@@H](CO)O2)c(=O)[nH]c1=O | – | – | – | – | – | – | – | – | – | 23 µM | –
N#CC(C#N)=Cc1cn([C@H]2C[C@H](O)[C@@H](CO)O2)c(=O)[nH]c1=O | 17 µM | 21 µM | 46 µM | 1.9 µM | 11 µM | 14 µM | 11 µM | 12 µM | 15 µM | 113 µM | –
CCOC(=O)/C(C#N)=C/c1cn([C@H]2C[C@H](O)[C@@H](CO)O2)c(=O)[nH]c1=O | 18 µM | 11 µM | 71 µM | 1.9 µM | 7.6 µM | 16 µM | 8.3 µM | 11 µM | 48 µM | 118 µM | –
O=c1[nH]c(=O)n([C@@H]2O[C@H](CO)[C@@H](O)[C@@H]2F)cc1I | – | – | – | – | – | – | – | – | – | 66 µM | –
CC1(C)CC(=O)C2=C(C1)OC(N)=C(C#N)C2c1cn([C@H]2C[C@H](O)[C@@H](CO)O2)c(=O)[nH]c1=O (stereo partly specified) | 7.9 µM | 8.4 µM | 67 µM | 3.1 µM | 7.3 µM | 17 µM | 13 µM | 14 µM | 9.2 µM | > 200 µM | –
Nc1nc(=O)n([C@@H]2O[C@H](CO)[C@@H](O)[C@@H]2F)cc1I | – | – | – | – | – | – | – | – | – | > 135 µM | –
O=c1[nH]c(=O)n([C@H]2C[C@H](O)[C@@H](CO)O2)cc1I [IDOXURIDINE] | 5.6 µM | 1.8 µM | 76 µM | 1.1 µM | – | – | – | – | – | 38 µM | –
O=c1[nH]c(=O)n([C@H]2C[C@H](O)[C@@H](CO)O2)cc1Br | – | – | – | – | – | – | – | – | – | 46 µM | –
Nc1nc2c(ncn2COCCO)c(=O)[nH]1 [ACYCLOVIR] | – | – | – | – | 1.3 µM | > 444 µM | 3.1 µM | > 444 µM | 8.5 µM | – | –
O=c1[nH]cc(C(F)(F)F)c(=O)[nH]1 | – | – | – | – | – | – | – | – | – | 47 µM | –
Nc1ccn(C[C@@H](CO)OCP(=O)(O)O)c(=O)n1 [CIDOFOVIR] | 11 µM | 32 µM | 16 µM | 10 µM | – | – | – | – | – | – | –
B1 | – | – | – | – | – | – | – | – | – | – | Km [8]: 97 µM; Km [9]: 13 µM; Km [10]: 9.6 µM; Km [11]: > 135 µM; Km [12]: 30 µM; Km [13]: 113 µM; Km [14]: 14 µM
